Experimental findings from patent US4435391A, “Dibenzoxazepine derivative, and pharmaceutical composition comprising the same” (Chugai Seiyaku Kabushiki Kaisha, priority 1980, dated 1984) are described below.

As usually defined, the inhibition is the percentage by which the read-out fell short of the control.

Like-named read-outs stand apart in the source and are kept apart here.

The subject of assay [1] is triglyuride (TG) level of plasma. Description: Plasma triglyceride (TG) in Triton-injected mice (Experiment 2). Type of assay: in vivo, mice of ddY strain. Particulars: Table 2, 150 mg/kg immediately and 8 hours after Triton WR-1399 500 mg/kg i.v., blood drawn 24 h after Triton; for inhibition in vivo: Mus musculus, iv, read-out: Percent Reduction TG (x ± S.E.). As for the experimental part: (§1) The mice of ddY strain weighing between 25 and 30 g were fasted overnight and then Triton WR-1399(500 mg/kg) (Ruger Chemicals Co.) was intravenously injected into the mice. Immediately and 8 hours after the injection, each mouse was administered 150 mg/kg of a test compound of this invention as suspended in 1% aqueous methylcellulose.
(§2) 24 Hours after the injection of Triton, the blood was drawn from the heart. The cholesterol (TC) and triglyuride (TG) levels of plasma were determined with RaBASuper (Chugai Seiyaku K.K., Japan).
(§3) As a positive control, chlofibrate were used.

Assay [2] relates to cholesterol (TC) level of plasma. Description: Plasma cholesterol (TC) in Triton-injected mice (Experiment 2). The note with it: Table 2, 150 mg/kg immediately and 8 hours after Triton WR-1399 500 mg/kg i.v., blood drawn 24 h after Triton; for inhibition in vivo: Mus musculus, iv, read-out: Percent Reduction TC (x ± S.E.). Type of assay: in vivo, mice of ddY strain. The method, then:
as §1, §2, §3

Assay [3] concerns lipid peroxide level (TBA) of blood. Description: Lipid peroxide (TBA) level of blood in alloxan-treated mice (Experiment 1). Type of assay: in vivo, male mice of ddY strain. The note with it: Table 1, 300 mg/kg orally, 22 h after alloxan 75 mg/kg i.v., blood drawn 48 h after alloxan, vs untreated mice; for inhibition in vivo at 300 mg/kg: Mus musculus, po, read-out: Percent Reduction TBA (x ± S.E.). The method, then:
(§4) Male mice of ddY strain weighing between 25 and 30 g were divided into groups of 10 members each and administered intravenously 75 mg/kg of alloxan. Twenty-two hours later, each mouse was administered orally 300 mg/kg of a test compound of this invention as suspended in 1% gum arabic. […] The lipid peroxide level (TBA) of blood was determined with Lipoperoxide-Test Wako (Wako Pure Chemical Industries, Ltd., Japan). The level of blood sugar (BG) was determined with New Blood Sugar Test (Berlinger Mannheim AG., West Germany). […] As a positive control, tocopherol was used.

Assay [4] deals with level of blood sugar (BG). Description: Blood sugar (BG) level in alloxan-treated mice (Experiment 1). Format: in vivo, male mice of ddY strain. The note with it: Table 1; 300 mg/kg orally, 22 h after alloxan 75 mg/kg i.v.; blood drawn 48 h after alloxan; vs untreated mice. As for the experimental part: as §4
Assay [5] concerns platelets (platelet rich plasma). Description: Inhibition of platelet aggregation in platelet rich plasma (Experiment 3). Type of assay: cell-based, SD strain rats. The note with it: for inhibition at 100 µM: Rattus norvegicus, Platelet. As for the experimental part: Platelet rich plasma samples were prepared from the blood of SD strain rats, and to 0.5 ml of the samples, test compounds in the form of a solution in dimethyl sulfoxide (DMSO) were added in such an amount that the concentration of the compounds in the mixture was 1×10^-4 M. The assay media containing aspirin were used as a control. After incubation for one minute, arachidonic acid, collagen and adenosine diphosphate (ADP) were added to the mixture in concentrations of 1×10^-4 M, 1.5×10^-3 M and 1×10^-6 M, respectively, to aggregate the platelets. The aggregation level was determined with an aggregometer. CORNING-EEL MODEL 16P (Manufactured by Evans Electro Selenium Ltd.) and the percent inhibition of platelets was calculated from the following equation: [formula]

Setting [6] is: Table 3 (own numbering), compound 1×10^-4 M, aggregation by ADP 1×10^-6 M, read-out: Percent Inhibition of Aggregation, ADP.
The mark [7] stands for this setting: Table 3 (own numbering), compound 1×10^-4 M, aggregation by arachidonic acid 1×10^-4 M, read-out: Percent Inhibition of Aggregation, Arachidonic acid.
Setting [8] is: Table 3 (own numbering), compound 1×10^-4 M, aggregation by collagen 1.5×10^-3 M, read-out: Percent Inhibition of Aggregation, Collagen.

With `CCOC(=O)c1ccc2c(c1)N=C(CC)c1ccc(OC)cc1O2` [Compound 6], the inhibition in vivo was determined as 19.6% in assay [1] and 19.5% in assay [2]. Besides, the inhibition in vivo at 300 mg/kg in assay [3] is 54%.

On to `COc1ccc2c(c1)Oc1ccc(C(=O)O)cc1N=C2C` [Compound 7], for which the “Percent Reduction BG (x ± S.E.)” value in assay [4] was 15.7%. Further, the values for the inhibition in vivo in assay [1] and in assay [2] were 18.8% and 17.3%, respectively. In addition, the inhibition in vivo at 300 mg/kg in assay [3] is 64.8%.

As for `CCOC(=O)c1ccc2c(c1)N=C(C)c1cccc(OC)c1O2` [Compound 5 (Table 3)], the inhibition at 100 µM in assay [5] (setting [6]) turned out to be 35%; in assay [5] (setting [7]) it was 45%; in assay [5] (setting [8]), 30%.

With `CCOC(=O)c1ccc2c(c1)N=C(C)c1cccc(C)c1O2` [Compound 4 (Table 3)], the inhibition at 100 µM in assay [5] (setting [6]) came to 51%; in assay [5] (setting [7]), 60%; in assay [5] (setting [8]), 48%.

Turning to `CCOC(=O)C(C)(C)Oc1ccc(Cl)cc1` [chlofibrate, reference compound], the inhibition in vivo in assay [1] was found to be 9.5%; in assay [2], 13.8%.

For the compound `CCOC(=O)c1ccc2c(c1)N=C(CC)c1cc(OC)cc(OC)c1O2` [Compound 16 (Table 1)], the inhibition at 100 µM was 44% in assay [5] (setting [6]), 52% in assay [5] (setting [7]) and 47% in assay [5] (setting [8]).

As for `CC(=O)Oc1ccccc1C(=O)O` [aspirin, reference compound], the inhibition at 100 µM is 17% in assay [5] (read-out: Percent Inhibition of Aggregation, ADP); 100% in assay [5] (read-out: Percent Inhibition of Aggregation, Arachidonic acid); 8% in assay [5] (read-out: Percent Inhibition of Aggregation, Collagen).

Take `CCCCOC(=O)c1ccc2c(c1)N=Cc1cccc(OC)c1O2` [Compound 12]: the inhibition in vivo in assay [1] came to 19.3%; in assay [2], 17.4%. The inhibition at 100 µM in assay [5] (setting [6]) is 35%; in assay [5] (setting [7]), 43%; in assay [5] (setting [8]) it was 37%. For the same compound, the inhibition in vivo at 300 mg/kg in assay [3] is 19.7%.

On to `CCOC(=O)c1ccc2c(c1)N=C(C=Cc1ccccc1)c1cc(OC)ccc1O2` [Compound 17], for which the inhibition in vivo came out at 19.7 ± 4.5% in assay [1] and 17.4 ± 3.5% in assay [2]. The inhibition in vivo at 300 mg/kg in assay [3] came out at 34.4 ± 2.9%.

Regarding `CCOC(=O)c1ccc2c(c1)N=C(CC)c1cc(OC)cc(OC)c1O2` [Compound 16], the inhibition in vivo in assay [1] turned out to be 17.8%; in assay [2], 16.4%. For the same compound, the inhibition in vivo at 300 mg/kg in assay [3] was 28.5%.

Regarding `CCOC(=O)c1ccc2c(c1)N=C(C=Cc1ccccc1)c1cc(OC)ccc1O2` [Compound 17 (Table 1)], the inhibition at 100 µM came to 46% in assay [5] (setting [6]), 48% in assay [5] (setting [7]) and 45% in assay [5] (setting [8]).

Consider `CCCC1=Nc2cc(C(=O)OCC)ccc2Oc2cc(C)ccc21` [Compound 20], for which the inhibition in vivo amounted to 17.4% in assay [1] and 16.5% in assay [2]. The figures for the inhibition at 100 µM in assay [5] (setting [6]), in assay [5] (setting [7]) and in assay [5] (setting [8]) were 47%, 60% and 50%, respectively. Moreover, in assay [3], the inhibition in vivo at 300 mg/kg was 39.6%.

With “11-methyl-3-methoxydibenz[b,f][1,4]oxazepine-8-carboxylic acid [Compound 7 (Table 1)]”, in assay [1], the “Percent Reduction TG (x ± S.E.)” value was 17.8%. Further, the “Percent Reduction TBA (x ± S.E.)” value in assay [3] came out at 61.1%.

Turning to `CCCOC(=O)c1ccc2c(c1)N=Cc1cccc(OC)c1O2` [Compound 11], the inhibition in vivo was found to be 21.3% in assay [1] and 19.2% in assay [2]. The inhibition at 100 µM worked out at 43% in assay [5] (setting [6]), 42% in assay [5] (setting [7]) and 40% in assay [5] (setting [8]). Moreover, the inhibition in vivo at 300 mg/kg in assay [3] is 38.6%.

Consider “ethyl 11-methyl-3-methoxydibenz[b,f][1,4]oxazepine-8-carboxylate [Compound 5 (Table 1)]”, for which, in assay [1], the “Percent Reduction TG (x ± S.E.)” value turned out to be 18.7%. In addition, in assay [5] (Table 3 (own numbering), compound 1×10^-4 M, aggregation by ADP 1×10^-6 M), the “Percent Inhibition of Aggregation, ADP” value came out at 45%. Moreover, the “Percent Inhibition of Aggregation, Arachidonic acid” value in assay [5] (Table 3 (own numbering), compound 1×10^-4 M, aggregation by arachidonic acid 1×10^-4 M) stood at 63%. In assay [5] (Table 3 (own numbering), compound 1×10^-4 M, aggregation by collagen 1.5×10^-3 M), the “Percent Inhibition of Aggregation, Collagen” value is on record as 50%. Moreover, in assay [2], the “Percent Reduction TC (x ± S.E.)” value is listed as 18.4%. Further, in assay [3], the “Percent Reduction TBA (x ± S.E.)” value turned out to be 35.2%.

`CCOC(=O)c1ccc2c(c1)N=Cc1ccc(C)cc1O2` [Compound 3]: the “Percent Reduction BG (x ± S.E.)” value in assay [4] is 16.5%. Moreover, the results for the inhibition in vivo in assay [1] and in assay [2] were 18.7% and 17.8%, respectively. Also, the inhibition in vivo at 300 mg/kg in assay [3] was determined as 23%.

With `O=C(O)c1ccc2c(c1)N=Cc1cc(Cl)ccc1O2` [Compound 13], the “Percent Reduction BG (x ± S.E.)” value in assay [4] is 10.4%. Further, the inhibition in vivo in assay [1] was 15.2%; in assay [2], 14.5%. Further, the inhibition in vivo at 300 mg/kg in assay [3] came out at 18.3%.

In the case of `Cc1ccc2c(c1)C=Nc1cc(C(=O)O)ccc1O2` [Compound 15], the “Percent Reduction BG (x ± S.E.)” value in assay [4] was 16.5%. The inhibition in vivo in assay [1] came to 19.4%; in assay [2] it was 17.7%. Further, the inhibition in vivo at 300 mg/kg in assay [3] was found to be 23.8%.

In the case of `COC(=O)c1ccc2c(c1)N=Cc1cccc(OC)c1O2` [Compound 10], the figures for the inhibition in vivo in assay [1] and in assay [2] were 24.5% and 20.7%, respectively. In addition, the inhibition at 100 µM in assay [5] (setting [6]) was determined as 36%; in assay [5] (setting [7]) it was 38%; in assay [5] (setting [8]), 34%. Besides, the inhibition in vivo at 300 mg/kg in assay [3] was determined as 50.3%.

Regarding `CCOC(=O)c1ccc2c(c1)N=C(C)c1ccc(C)cc1O2` [Compound 3 (Table 3)], the inhibition at 100 µM in assay [5] (setting [6]) is 50%; in assay [5] (setting [7]) it was 55%; in assay [5] (setting [8]), 43%.

Consider `CCOC(=O)c1ccc2c(c1)N=C(c1ccccc1)c1ccc(OC)cc1O2` [Compound 18], for which the inhibition in vivo came to 21.3 ± 3.2% in assay [1] and 18.4 ± 2.9% in assay [2]. In addition, in assay [3], the inhibition in vivo at 300 mg/kg was 41.7 ± 3.2%.

For `CCOc1cccc2c1Oc1ccc(C(=O)O)cc1N=C2` [Compound 14], in assay [4], the “Percent Reduction BG (x ± S.E.)” value worked out at 18.7%. Moreover, the inhibition in vivo in assay [1] amounted to 21.3%; in assay [2], 19.5%. The inhibition in vivo at 300 mg/kg in assay [3] amounted to 63.4%.

Take `CCOC(=O)c1ccc2c(c1)N=C(CC)c1ccc(C)cc1O2` [Compound 4 (Table 1)]: the inhibition at 100 µM turned out to be 50% in assay [5] (setting [6]), 60% in assay [5] (setting [7]) and 47% in assay [5] (setting [8]).

For the compound `CCOC(=O)c1ccc2c(c1)N=C(c1ccccc1)c1ccc(OC)cc1O2` [Compound 18 (Table 1)], the inhibition at 100 µM in assay [5] (setting [6]) turned out to be 40%; in assay [5] (setting [7]), 50%; in assay [5] (setting [8]) it was 43%.

As for `Cc1c(C)c2c(c(C)c1O)CCC(C)(CCCC(C)CCCC(C)CCCC(C)C)O2` (stereo not drawn) [α-tocopherol, reference compound], the inhibition in vivo at 300 mg/kg in assay [3] amounted to 51.7%.

For the compound `CCC1=Nc2cc(C(=O)O)ccc2Oc2cc(OC)ccc21` [Compound 9], the “Percent Reduction BG (x ± S.E.)” value in assay [4] came out at 18.4%. For the same compound, the inhibition in vivo in assay [1] was found to be 18.5%; in assay [2] it was 17.9%. Further, the inhibition in vivo at 300 mg/kg in assay [3] stood at 67.7%.

Regarding `CCOC(=O)c1ccc2c(c1)N=C(c1cccc(C)c1)c1ccc(OC)cc1O2` [Compound 19], the inhibition in vivo in assay [1] is 19.7%; in assay [2], 20.1%. The inhibition at 100 µM is 39% in assay [5] (setting [6]), 45% in assay [5] (setting [7]) and 41% in assay [5] (setting [8]). Further, the inhibition in vivo at 300 mg/kg in assay [3] is 34.9%.

On to `CC1=Nc2cc(C(=O)O)ccc2Oc2cc(C)ccc21` [Compound 8], for which the “Percent Reduction BG (x ± S.E.)” value in assay [4] came to 16.3%. Moreover, the inhibition in vivo amounted to 19.3% in assay [1] and 18.6% in assay [2]. Besides, the inhibition in vivo at 300 mg/kg in assay [3] was determined as 52%.
